ChEMBL document CHEMBL3120056 (Eur J Med Chem, 2014)
The source made the active and inactive calls. The calls are words filed in the database; no cut-off is given here.

How the values were obtained:
Type in all cases: cell-based
[1] = target: T1, Somatostatin receptor type 2 (Homo sapiens, UniProt P30874); assay: Displacement of [125I]-[LTT]-SS28 from human SST2 receptor expressed in Chinese hamster CCL-39 cells after 2 hrs by autoradiographic analysis
[2] = target: Somatostatin receptor type 3 (Homo sapiens, UniProt P32745); assay: Displacement of [125I]-[LTT]-SS28 from human SST3 receptor expressed in Chinese hamster CCL-39 cells after 2 hrs by autoradiographic analysis
[3] = target: Somatostatin receptor type 5 (Homo sapiens, UniProt P35346); assay: Displacement of [125I]-[LTT]-SS28 from human SST5 receptor expressed in HEK293 cells after 2 hrs by autoradiographic analysis
[4] = target: Somatostatin receptor type 1 (Homo sapiens, UniProt P30872); assay: Displacement of [125I]-[LTT]-SS28 from human SST1 receptor expressed in CHO cells after 2 hrs by autoradiographic analysis
[5] = target: T1, Somatostatin receptor type 2; assay: Agonist activity at T7-epitope-tagged human SST2A receptor expressed in HEK293 cells assessed as stimulation of receptor internalization at 1 uM after 30 mins by immunofluorescence microscopic analysis
[6] = target: Somatostatin receptor type 4 (Homo sapiens, UniProt P31391); assay: Displacement of [125I]-[LTT]-SS28 from human SST4 receptor expressed in Chinese hamster CCL-39 cells after 2 hrs by autoradiographic analysis
Sequence of Somatostatin receptor type 4 (P31391 whole entry): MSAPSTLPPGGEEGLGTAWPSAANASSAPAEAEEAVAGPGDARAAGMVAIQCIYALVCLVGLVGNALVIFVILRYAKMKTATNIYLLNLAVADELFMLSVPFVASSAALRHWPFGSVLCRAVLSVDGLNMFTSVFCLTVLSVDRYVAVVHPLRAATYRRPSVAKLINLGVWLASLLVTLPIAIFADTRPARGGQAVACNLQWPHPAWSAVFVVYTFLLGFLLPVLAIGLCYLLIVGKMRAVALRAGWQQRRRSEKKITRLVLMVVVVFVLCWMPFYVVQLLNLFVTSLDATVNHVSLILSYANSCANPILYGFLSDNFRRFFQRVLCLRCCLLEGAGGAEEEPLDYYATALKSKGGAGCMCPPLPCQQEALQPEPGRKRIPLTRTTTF

Sequence of Somatostatin receptor type 3 (P32745 whole entry): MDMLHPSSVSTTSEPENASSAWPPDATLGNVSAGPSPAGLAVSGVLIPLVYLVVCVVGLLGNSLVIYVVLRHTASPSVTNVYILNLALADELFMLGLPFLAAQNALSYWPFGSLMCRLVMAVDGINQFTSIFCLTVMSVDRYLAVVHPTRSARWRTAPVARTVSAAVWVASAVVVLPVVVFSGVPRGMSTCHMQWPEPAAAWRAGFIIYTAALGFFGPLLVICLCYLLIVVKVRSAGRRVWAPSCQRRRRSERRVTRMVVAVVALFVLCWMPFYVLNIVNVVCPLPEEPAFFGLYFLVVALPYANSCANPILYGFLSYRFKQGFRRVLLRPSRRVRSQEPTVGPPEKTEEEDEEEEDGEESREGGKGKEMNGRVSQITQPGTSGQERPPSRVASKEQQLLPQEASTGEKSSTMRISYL
Sequence of Somatostatin receptor type 5 (P35346 whole entry): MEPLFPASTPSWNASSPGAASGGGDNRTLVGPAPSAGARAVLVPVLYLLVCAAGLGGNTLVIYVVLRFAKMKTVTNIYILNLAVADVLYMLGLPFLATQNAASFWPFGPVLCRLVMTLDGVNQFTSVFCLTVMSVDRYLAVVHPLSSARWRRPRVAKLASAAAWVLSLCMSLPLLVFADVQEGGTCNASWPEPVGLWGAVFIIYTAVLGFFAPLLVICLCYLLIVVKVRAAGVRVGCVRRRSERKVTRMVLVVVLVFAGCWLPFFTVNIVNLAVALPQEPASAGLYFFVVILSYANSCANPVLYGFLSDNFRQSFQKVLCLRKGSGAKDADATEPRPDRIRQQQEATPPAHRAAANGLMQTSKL
Sequence of Somatostatin receptor type 1 (P30872 whole entry): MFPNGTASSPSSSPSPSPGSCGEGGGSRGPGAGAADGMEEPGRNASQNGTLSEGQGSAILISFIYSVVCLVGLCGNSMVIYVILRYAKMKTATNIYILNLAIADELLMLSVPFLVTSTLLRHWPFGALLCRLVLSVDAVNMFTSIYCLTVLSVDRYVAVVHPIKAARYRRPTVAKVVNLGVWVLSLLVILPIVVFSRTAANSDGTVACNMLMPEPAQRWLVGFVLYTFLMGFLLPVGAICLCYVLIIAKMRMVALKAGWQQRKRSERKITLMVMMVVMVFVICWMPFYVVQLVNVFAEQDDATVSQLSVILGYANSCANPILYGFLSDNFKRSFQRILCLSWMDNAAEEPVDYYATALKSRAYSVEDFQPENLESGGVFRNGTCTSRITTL
T1 sequence (P30874 whole entry): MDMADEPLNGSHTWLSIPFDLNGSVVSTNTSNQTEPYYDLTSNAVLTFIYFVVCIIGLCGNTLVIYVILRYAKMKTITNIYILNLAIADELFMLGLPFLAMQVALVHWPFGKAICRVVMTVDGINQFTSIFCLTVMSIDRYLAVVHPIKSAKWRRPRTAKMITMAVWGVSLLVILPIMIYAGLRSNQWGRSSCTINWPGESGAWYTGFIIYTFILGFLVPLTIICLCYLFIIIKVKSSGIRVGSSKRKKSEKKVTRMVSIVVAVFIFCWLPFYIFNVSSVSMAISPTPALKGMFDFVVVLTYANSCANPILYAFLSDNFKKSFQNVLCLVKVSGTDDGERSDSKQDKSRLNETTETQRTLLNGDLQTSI

SMILES	IC50 [1] [nM]	IC50 [2] [nM]	IC50 [3] [nM]	IC50 [4] [nM]	Activity [5]	IC50 [6] [nM]
CCCC[C@H](NC(=O)CNC(=O)[C@H](C)NC(=O)CN1CCN(CC(=O)O)CCN(CC(=O)O)CCN(CC(=O)O)CC1)C(=O)N[C@@H](CCCCN)C(=O)N[C@@H](CC(N)=O)C(=O)N[C@H]1CSSC[C@@H](C(=O)N[C@H](C(=O)N[C@@H](CO)C(=O)NCC(=O)O)[C@@H](C)O)NC(=O)[C@H]([C@@H](C)O)NC(=O)[C@H](CCCCN)NC(=O)[C@@H](Cc2c[nH]c3ccccc23)NC(=O)[C@H](Cc2ccccc2)NC1=O	> 1000	> 1000	> 1000	> 1000	inactive	> 1000
CCCC[C@H](NC(=O)CNC(=O)[C@H](C)NC(=O)CN1CCN(CC(=O)O)CCN(CC(=O)O)CCN(CC(=O)O)CC1)C(=O)N[C@@H](CCCCN)C(=O)N[C@@H](CC(N)=O)C(=O)N[C@H]1CSSC[C@@H](C(=O)N[C@H](C(=O)N[C@@H](CO)C(=O)NCC(=O)O)[C@@H](C)O)NC(=O)[C@H]([C@@H](C)O)NC(=O)[C@H](CCCCN)NC(=O)[C@@H](Cc2c[nH]c3ccccc23)NC(=O)[C@H](Cc2ccc(O)cc2)NC1=O	946	> 1000	> 1000	> 1000	inactive	> 1000
CCCC[C@H](NC(=O)CNC(=O)[C@H](C)NC(=O)CN1CCN(CC(=O)O)CCN(CC(=O)O)CCN(CC(=O)O)CC1)C(=O)N[C@@H](CCCCN)C(=O)N[C@@H]1CSSC[C@@H](C(=O)N[C@@H](CO)C(=O)NCC(=O)O)NC(=O)[C@H](Cc2ccccc2)NC(=O)[C@H]([C@@H](C)O)NC(=O)[C@H](CCCCN)NC(=O)[C@@H](Cc2c[nH]c3ccccc23)NC(=O)[C@H](Cc2ccccc2)NC(=O)[C@H](Cc2ccccc2)NC1=O	50	98	37	18	inactive	5.4
C[C@H](NC(=O)CN1CCN(CC(=O)O)CCN(CC(=O)O)CCN(CC(=O)O)CC1)C(=O)NCC(=O)N[C@H]1CSSC[C@H](C(=O)O)NC(=O)[C@H](CO)NC(=O)[C@H]([C@@H](C)O)NC(=O)[C@H](Cc2ccccc2)NC(=O)[C@H]([C@@H](C)O)NC(=O)[C@H](CCCCN)NC(=O)[C@@H](Cc2c[nH]c3ccccc23)NC(=O)[C@H](Cc2ccccc2)NC(=O)[C@H](Cc2ccccc2)NC(=O)[C@H](CC(N)=O)NC(=O)[C@H](CCCNC(=N)N)NC1=O	1.6	16	25	38	Active	2.8
CCCC[C@H](NC(=O)CNC(=O)[C@H](C)NC(=O)CN1CCN(CC(=O)O)CCN(CC(=O)O)CCN(CC(=O)O)CC1)C(=O)N[C@@H](CCCCN)C(=O)N[C@H]1CSSC[C@@H](C(=O)N[C@@H](CO)C(=O)NCC(=O)O)NC(=O)[C@H](Cc2ccccc2)NC(=O)[C@H]([C@@H](C)O)NC(=O)[C@H](CCCCN)NC(=O)[C@@H](Cc2c[nH]c3ccccc23)NC(=O)[C@H](Cc2ccccc2)NC(=O)[C@H](Cc2ccccc2)NC1=O	11	16	50	33	Active	4

The remaining lines, values ahead:

IC50 [1] [nM]	IC50 [2] [nM]	IC50 [3] [nM]	IC50 [4] [nM]	Activity [5]	IC50 [6] [nM]	SMILES
1	18	58	795	Active	1.2	C[C@@H](O)[C@@H]1NC(=O)[C@H](CCCCN)NC(=O)[C@@H](Cc2c[nH]c3ccccc23)NC(=O)[C@H](Cc2ccccc2)NC(=O)[C@H](Cc2ccccc2)NC(=O)[C@@H](NC(=O)CNC(=O)COCCOCCNC(=O)CN2CCN(CC(=O)O)CCN(CC(=O)O)CCN(CC(=O)O)CC2)CSSC[C@@H](C(=O)O)NC(=O)[C@H](CO)NC(=O)[C@H](Cc2ccccc2)NC1=O
0.76	24	16	171	Active	0.9	C[C@@H](O)[C@@H]1NC(=O)[C@H](CCCCN)NC(=O)[C@@H](Cc2c[nH]c3ccccc23)NC(=O)[C@H](Cc2ccccc2)NC(=O)[C@H](Cc2ccccc2)NC(=O)[C@@H](NC(=O)[C@H](CCCNC(=N)N)NC(=O)COCCOCCNC(=O)CN2CCN(CC(=O)O)CCN(CC(=O)O)CCN(CC(=O)O)CC2)CSSC[C@@H](C(=O)O)NC(=O)[C@H](CO)NC(=O)[C@H](Cc2ccccc2)NC1=O
